Measured values: patent US7155346B2, “Crystal structure of yqeJ and uses thereof” (Wyeth, priority 2001, dated 2006)

Legend:
[1] = molecular target: T1, B. subtilis NaMN AT (yqeJ) (Bacillus subtilis, UniProt P54455); assay: Continuous coupled assay of the forward reaction (EnzChek pyrophosphate / purine nucleoside phosphorylase); type: biochemical; set-up: made in house; host or cells: E. coli BL21(DE3), vector pML208 (modified pET16b)
T1 sequence (P54455 with tags, fused parts or gaps): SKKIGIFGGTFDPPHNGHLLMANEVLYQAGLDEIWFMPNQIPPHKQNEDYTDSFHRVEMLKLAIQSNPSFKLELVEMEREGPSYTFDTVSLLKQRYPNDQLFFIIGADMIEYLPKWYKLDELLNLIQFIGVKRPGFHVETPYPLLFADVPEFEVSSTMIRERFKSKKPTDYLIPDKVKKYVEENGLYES
Source text: Continuous assay. A continuous assay to monitor the reaction in the forward direction was based upon the EnzChek pyrophosphate assay from Molecular Probes (Eugene Oreg.) In this assay, inorganic pyrophosphate produced in the forward reaction of yqeJ is cleaved by inorganic pyrophosphatase to phosphate, which is used by the second coupling enzyme, purine nucleoside phosphorylase (PNP), to convert the chromogenic substrate 2-amino-6-mercapto-7-methylpurine ribonucleoside (MESG) to ribose-1-phosphate and 2-amino-6-mercapto-7methylpurine (E360=11,000 M^−1cm^−1). The reaction conditions were 20 mM Hepes pH 7.5, 10 mM MgCl2, 0.2 mM MESG, 1 U PNP, 0.01 U inorganic pyrophosphatase, and 0.03 μg/mL yqeJ. The reaction volume was 125 μL and was carried out in a 96 well plate at room temperature using spectamax384 plus plate reader recording continuously at 360 nm (Molecular Devices, Sunnyvale Calif.). For the KM determinations, NaMN was varied from 25 to 500 μM with ATP held at 2 mM and ATP was varied from 50 to 1000 μM with NaMN held constant at 1 mM. All kinetic constants were determined from non-linear fits of the experimental data using the enzyme kinetic module of Sigmaplot 7.0 (SPSS, Inc. San Rafael Calif.). The reaction conditions were the same for the KM determinations for NMN except the MgCl2 concentration was increased to 50 mM and the yqeJ concentration was increased to 75 μg/mL due to the lower activity against this substrate. […] The data was fit to a model of substrate inhibition using the equation: v=Vmax/(1+KM/S+S/Ki). […] NMN was varied from 0.5 to 10 mM with ATP held constant at 0.6 mM. The kinetic constants of yqeJ using NMN and ATP substrates also was determined with a second coupled assay system, one coupling NAD production to its reduction by alcohol dehyrogenase. This assay was described by Balducci et al (Balducci et al, 1995a) and has been used to characterize other NMN ATase. Using this assay, very similar values of KM and Vmax for NMN were obtained as was determined with the PNP coupled assay described above. The alcohol dehyrogenase coupled assay was not suitable to assays NaMN as a substrate, presumably because NaAD is not a good substrate for alcohol dehydrogenase.

yqeJ NaMN AT = molecular target: T2, yqeJ NaMN AT (Bacillus subtilis, UniProt P54455); assay: Discontinuous HPLC adenylyl transferase assay; type: biochemical; settings: 30 minutes, 37° C.
T2 construct: made in house; host or cells: E. coli BL21(DE3), vector pML208 (modified pET16b)
Experimental: FIGS. 3A, 3B, 3C and 3D provides the results of HPLC analysis of yqeJ NaMN AT adenylyl transferase activity. 0.36 mg/ml yqeJ NaMN AT was incubated with 1 mM ATP and 1 mM NaMN (3A) or 1 mM NMN (3B) for 30 minutes.
Discontinuous HPLC assay. The discontinuous HPLC assay is based upon the assays published by Mehl et al. (12) and Balducci et al. (18). Reaction conditions were 20 mM Hepes, pH 7.4, 10 mM MgCl2, and 0.36 or 0.18 mg/ml yqeJ protein incubated at 37° C. For the forward reaction, the incubations contained 1 mM ATP and 1 mM NaMN or NMN. […] The reactants and products were separated by chromatography on a 3.9×150 mm C18 column (Novapack 5 μm, Waters Inc). Buffer A 100 mM potassium phosphate pH 7.5. Buffer B 100 mM potassium phosphate pH 7.5 in 20% MeOH. The elution conditions were: 0 to 3 min in 100% A, 3.0 to 3.1 min to 100% B, 3.1 to 7 min 100% B. The absorbance of reactants and products was detected at 254 nm.

[2] = molecular target: T1, B. subtilis NaMN AT (yqeJ); assay: Back reaction coupled enzyme assay (hexokinase / glucose-6-phosphate dehydrogenase)
Source text: The back reaction for yqeJ NaMN AT was monitored using the coupled enzyme assay of hexokinase and glucose-6-phosphate dehydrogenase (from yeast). […] The ATP is then used by hexokinase to phosphorylate glucose to give glucose-6-phosphate and ADP. Glucose-6-phosphate is oxidized to 6-phospho-glucono-δ-lactone by glucose-6-phosphate dehydrogenase and NADP is reduced to NADPH. The assay is followed by the absorbance of NADPH at 340 nm. Glucose-6-phosphate dehydrogenase from baker's yeast was used because this enzyme prefers NADP to NAD as a co-substrate. Assay conditions were: 20 mM HEPES pH 7.5, 50 mM MgCl2, 1 mM NaPPi, 10 mM KCl, 5 U hexokinase, 5 U glucose-6-phosphate dehydrogenase, 1 mM glucose, 0.5 mM NADP+.

[3] = substrate: NC(=O)c1ccc[n+]([C@@H]2O[C@H](COP(=O)([O-])O)[C@@H](O)[C@H]2O)c1; assay: Continuous coupled assay of the forward reaction (EnzChek pyrophosphate / purine nucleoside phosphorylase); type: biochemical, Bacillus subtilis; settings: other: forward reaction; mononucleotide substrate varied, ATP held constant (2 mM for NaMN, 0.6 mM for NMN); NMN fit to substrate inhibition equation; pH 7.5
Source text: Continuous assay. A continuous assay to monitor the reaction in the forward direction was based upon the EnzChek pyrophosphate assay from Molecular Probes (Eugene Oreg.) In this assay, inorganic pyrophosphate produced in the forward reaction of yqeJ is cleaved by inorganic pyrophosphatase to phosphate, which is used by the second coupling enzyme, purine nucleoside phosphorylase (PNP), to convert the chromogenic substrate 2-amino-6-mercapto-7-methylpurine ribonucleoside (MESG) to ribose-1-phosphate and 2-amino-6-mercapto-7methylpurine (E360=11,000 M^−1cm^−1). The reaction conditions were 20 mM Hepes pH 7.5, 10 mM MgCl2, 0.2 mM MESG, 1 U PNP, 0.01 U inorganic pyrophosphatase, and 0.03 μg/mL yqeJ. The reaction volume was 125 μL and was carried out in a 96 well plate at room temperature using spectamax384 plus plate reader recording continuously at 360 nm (Molecular Devices, Sunnyvale Calif.). […] All kinetic constants were determined from non-linear fits of the experimental data using the enzyme kinetic module of Sigmaplot 7.0 (SPSS, Inc. San Rafael Calif.). […] The kinetic constants of yqeJ using NMN and ATP substrates also was determined with a second coupled assay system, one coupling NAD production to its reduction by alcohol dehyrogenase. […] Using this assay, very similar values of KM and Vmax for NMN were obtained as was determined with the PNP coupled assay described above. […]

[4] = substrate: O=P(O)(O)OP(=O)(O)O; assay: purified protein, by the assay type; settings: other: back reaction; at saturating concentrations of NaAD (500 μM); pH 7.5
[5] = substrate: NC(=O)c1ccc[n+]([C@@H]2O[C@H](COP(=O)([O-])OP(=O)(O)OC[C@H]3O[C@@H](n4cnc5c(N)ncnc54)[C@H](O)[C@@H]3O)[C@@H](O)[C@H]2O)c1; assay: purified protein, by the assay type; settings: other: back reaction; at subsaturating concentrations of PPi (1 mM); pH 7.5
Source text: The back reaction for yqeJ NaMN AT was monitored using the coupled enzyme assay of hexokinase and glucose-6-phosphate dehydrogenase (from yeast). […] The ATP is then used by hexokinase to phosphorylate glucose to give glucose-6-phosphate and ADP. Glucose-6-phosphate is oxidized to 6-phospho-glucono-δ-lactone by glucose-6-phosphate dehydrogenase and NADP is reduced to NADPH. The assay is followed by the absorbance of NADPH at 340 nm. Glucose-6-phosphate dehydrogenase from baker's yeast was used because this enzyme prefers NADP to NAD as a co-substrate. Assay conditions were: 20 mM HEPES pH 7.5, 50 mM MgCl2, 1 mM NaPPi, 10 mM KCl, 5 U hexokinase, 5 U glucose-6-phosphate dehydrogenase, 1 mM glucose, 0.5 mM NADP+. […] At high concentration of NaPPi a precipitate was observed.

[6] = forward reaction, at saturating concentrations of NaMN
[7] = forward reaction: 1 mM ATP and 1 mM substrate, 0.36 mg/ml yqeJ
[8] = back reaction, at subsaturating concentrations of PPi (1 mM)

`Nc1ncnc2c1ncn2[C@@H]1O[C@H](COP(=O)(O)OP(=O)(O)OP(=O)(O)O)[C@@H](O)[C@H]1O` [ATP] gave a Km [1, 6] of 135 µM and a Vmax [1, 6] of 10.1 ± 0.4 µmol/min/mg.

In the case of `NC(=O)c1ccc[n+]([C@@H]2O[C@H](COP(=O)([O-])O)[C@@H](O)[C@H]2O)c1` [NMN, Nicotinamide Mononucleotide], the “conversion of substrate by yqeJ, detected by HPLC” value (“conversion of substrate by yqeJ” for short) (yqeJ NaMN AT; [7]) is reported as “a new peak that eluted with NAD” and the Ki [1] is reported as 17 mM.

`Nc1ncnc2c1ncn2[C@@H]1O[C@H](COP(=O)(O)OP(=O)(O)OC[C@H]2O[C@@H]([n+]3cccc(C(=O)O)c3)[C@H](O)[C@@H]2O)[C@@H](O)[C@H]1O` [NAAD, nicotinic acid adenine dinucleotide] was tested, and the Km [2, 8] was 6.8 µM, the Vmax [2, 8] was 2.8 ± 0.2 µmol/min/mg and the “preference (Vmax/KM ratio) for nicotinic acid over nicotinamide containing substrate” value ([2]; reverse reaction, NaAD over NAD) was 2,000 to 1. For the same molecule, the “conversion of substrate by yqeJ” value (yqeJ NaMN AT; reverse reaction: 1 mM sodium pyrophosphate and 0.5 mM substrate, 0.18 mg/ml yqeJ) was “converted to NaMN and ATP”.

In the case of `O=C(O)c1ccc[n+]([C@@H]2O[C@H](COP(=O)(O)O)[C@@H](O)[C@H]2O)c1` [NaMN, nicotinic acid mononucleotide], the “conversion of substrate by yqeJ” value (yqeJ NaMN AT; [7]) is reported as “formation of a new peak as detected by HPLC that eluted with the NaAD standard”, the “preference (Vmax/KM ratio) for nicotinic acid over nicotinamide containing substrate” value ([1]; forward reaction, NaMN over NMN) is reported as 12,900 to 1 and the Vmax ([1]; forward reaction, mononucleotide substrate varied, ATP held constant) is reported as 11.1 ± 0.7 µmol/min/mg. The Km ([1]; forward reaction, mononucleotide substrate varied, ATP held constant (2 mM for NaMN, 0.6 mM for NMN), NMN fit to substrate inhibition equation) was 43 µM.

B1: B. subtilis NaMN AT (yqeJ) (Bacillus subtilis subsp. subtilis str. 168) (protein)
chain: SKKIGIFGGTFDPPHNGHLLMANEVLYQAGLDEIWFMPNQIPPHKQNEDYTDSFHRVEMLKLAIQSNPSFKLELVEMEREGPSYTFDTVSLLKQRYPNDQLFFIIGADMIEYLPKWYKLDELLNLIQFIGVKRPGFHVETPYPLLFADVPEFEVSSTMIRERFKSKKPTDYLIPDKVKKYVEENGLYES
notes: made in house; host or cells: E. coli BL21(DE3), vector pML208 (modified pET16b)
In the case of B1, the Km [3] is reported as 2300 ± 200 µM, the Vmax [3] is reported as 0.054 µmol/min/mg and the Km [4] is reported as 4200 ± 600 µM. For the same molecule, the Km [5] was 1700 ± 200 µM and the Vmax [5] was 0.34 µmol/min/mg.
